Test results published in patent publication US8907103B2, “Glucagon antagonists” (Metabasis Therapeutics, Inc., priority 2008, dated 2014).
Read-outs that look alike come from different tables or passages of the source.

Legend:
[1] = tested on: human hepatocytes; test: Functional antagonism of glucagon-stimulated glucose production in hepatocytes; format: cell-based; conditions: human hepatocyte assay, 1 nM glucagon; read-out: Hu Hepatocyte EC50
Experimental: Primary human, monkey, dog, rat, or mouse hepatocytes are seeded onto collagen-coated 24-well plates in Williams E medium (supplemented with 10% fetal bovine serum) and incubated at 37° C. overnight in M199 medium (supplemented with 15 mM glucose and 10 nM human insulin). The following day cells are washed twice with a glucose-free Kreb-bicarbonate buffer, pH 7.4, containing 0.1% BSA. Cells are then incubated at 37° C. with the aforementioned buffer containing 1 nM glucagon and varying concentrations of a glucagon antagonist (0-100 microM). Control wells without glucagon or antagonist are also included. After 1 hour, an aliquot of the medium is removed and analyzed for glucose content by means of the glucose oxidase method. The background glucose levels observed in the control wells are subtracted from the glucagon and antagonist containing wells. A graph of % glucose concentration vs drug concentration is plotted and an EC50 value for inhibition of glucose production generated using Sigmaplot software (SAS, Cary, N.C.). Alternatively, intracellular cAMP levels are measured using standard kits and EC50 values determined by plotting these levels against drug concentration. Antagonists of the glucagon receptor inhibit glucagon-induced cAMP production.

[2] = molecular target: T1, human glucagon receptor (Homo sapiens, UniProt P47871); test: Human glucagon receptor affinity ([125I]glucagon displacement, membrane preparation); format: binding
T1 construct: host or cells: human liver samples or a recombinant cell line (alternatives)
Experimental: Compounds provided herein are dissolved in a suitable solvent (e.g., dimethlysulfoxide) at a concentration of 10 mM and then diluted in buffer (e.g., 50 mM Hepes, pH 7.4, 5 mM MgCl2, 1 mM CaCl2, and 0.2% BSA) to concentrations ranging from 1 nM to 100 μM. Compounds (20 μL/well) and [^125I]glucagon at the final concentration of 0.125 nM (20 μl/well) (Perkin Elmer) are added to and mixed in wells of a 96-well plate (Costar, Corning) containing 120 μL of buffer. Next, an appropriate aliquot of a membrane preparation containing the human glucagon receptor (isolated from human liver samples or obtained from a recombinant cell line) is added to the wells. The binding mixtures are incubated for 2 hrs at room temperature. In the meantime, a MultiScreen 96-well filter plate (Millipore) is treated with 200 μL of the buffer, which is vacuumed through the filter just before the binding mixtures are transferred to the plate. At the end of incubation, binding mixtures are transferred to the wells of the MultiScreen 96-well filter plate and filtered through by applying vacuum. The plate is washed once with 200 μL per well of the buffer, and the filters are dried and counted using a gamma counter.

[3] = human glucagon receptor binding assay, stereo column says racemic or R-isomer, read-out: Hu IC50
[4] = S-isomer, read-out: Hu 1050 (nM) S
[5] = R-isomer, read-out: Hu 1050 (nM) R

T1 sequence (P47871 26-477): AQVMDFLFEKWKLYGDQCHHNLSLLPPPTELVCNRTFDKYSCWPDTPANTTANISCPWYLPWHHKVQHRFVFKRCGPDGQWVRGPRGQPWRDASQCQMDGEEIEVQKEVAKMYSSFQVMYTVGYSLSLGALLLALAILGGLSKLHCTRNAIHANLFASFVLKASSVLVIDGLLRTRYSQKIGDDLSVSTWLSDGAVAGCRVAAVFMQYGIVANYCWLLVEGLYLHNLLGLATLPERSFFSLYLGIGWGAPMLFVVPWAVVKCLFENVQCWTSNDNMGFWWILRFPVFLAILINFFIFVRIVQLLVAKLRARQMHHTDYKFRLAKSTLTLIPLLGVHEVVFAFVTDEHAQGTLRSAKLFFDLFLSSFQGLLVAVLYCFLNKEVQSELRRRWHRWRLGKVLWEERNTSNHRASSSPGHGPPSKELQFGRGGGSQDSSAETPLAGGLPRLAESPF

| IC50 [2, 3] [nM] | IC50 [2, 4] [nM] | IC50 [2, 5] [nM] | Structure (SMILES) | EC50 [1] [nM] |
| --- | --- | --- | --- | --- |
| 15 | – | – | CC(C)(C)c1ccc(-c2cccc(C(Cc3ccc(C(=O)NCCS(=O)(=O)O)cc3)C(=O)Nc3ccc(-c4ccc(Cl)cc4Cl)cc3)c2)cc1 (racemic) | 215 |
| 18 | – | – | CC(C)(C)C1CCC(c2ccc(C(Cc3ccc(C(=O)NCCS(=O)(=O)O)cc3)C(=O)Nc3ccc(-c4nc5ccccc5o4)cc3)cc2)CC1 (racemic) | 161 |
| 11 | – | – | Cc1cc(C)c2oc(-c3ccc(NC(=O)C(Cc4ccc(C(=O)NCCS(=O)(=O)O)cc4)c4ccc(-c5ccc(C(C)(C)C)cc5)cc4)cc3)nc2c1 (racemic) | 560 |
| – | – | 10 | Cc1cccc2oc(-c3ccc(NC(=O)C(Cc4ccc(C(=O)NCCS(=O)(=O)O)cc4)c4ccc(-c5ccc(C(C)(C)C)cc5)cc4)cc3)nc12 (single isomer, unassigned) [drawing 135 R] | – |
| 10 | – | – | CC(C)(C)c1ccc(-c2ccc(C(Cc3ccc(C(=O)NCCS(=O)(=O)O)cc3)C(=O)Nc3ccc(-c4ccc(Cl)c(Cl)c4)cc3)cc2)cc1 (racemic) | – |
| – | – | 11 | Cc1cc(Cl)ccc1-c1ccc(NC(=O)C(Cc2ccc(C(=O)NCCS(=O)(=O)O)cc2)c2ccc(-c3ccc(C(C)(C)C)cc3)cc2)cc1 (stereo not shown) [drawing 131 R] | – |
| 10 | – | – | Cc1ccc(-c2ccc(NC(=O)C(Cc3ccc(C(=O)NCCS(=O)(=O)O)cc3)c3ccc(-c4ccc(C(C)(C)C)cc4)cc3)cc2)cc1Cl (racemic) | – |
| 8 | – | – | CC(C)(C)C1CC=C(c2ccc(C(Cc3ccc(C(=O)NCCS(=O)(=O)O)cc3)C(=O)Nc3ccc(-c4nc5ccccc5o4)cc3)cc2)CC1 (racemic) | 116 |
| 19 | – | – | Cc1cc(Cl)ccc1-c1ccc(NC(=O)C(Cc2ccc(C(=O)NCCS(=O)(=O)O)cc2)c2ccc(-c3ccc(C(C)(C)C)cc3)cc2)c(Cl)c1 (racemic) | – |
| – | 49 | – | Cc1cccc2oc(-c3ccc(NC(=O)C(Cc4ccc(C(=O)NCCS(=O)(=O)O)cc4)c4ccc(-c5ccc(C(C)(C)C)cc5)cc4)cc3)nc12 (single isomer, unassigned) [drawing 135 S] | – |
| 8 | – | – | Cc1cc(NC(=O)C(Cc2ccc(C(=O)NCCS(=O)(=O)O)cc2)c2ccc(-c3ccc(C(C)(C)C)cc3)cc2)ccc1-c1nc2ccccc2o1 (racemic) | 167 |
| 10 | – | – | Cc1ccc(Cl)cc1-c1ccc(NC(=O)C(Cc2ccc(C(=O)NCCS(=O)(=O)O)cc2)c2ccc(-c3ccc(C(C)(C)C)cc3)cc2)cc1 (racemic) | 192 |
| – | – | 6 | Cc1cc(Cl)ccc1-c1ccc(NC(=O)C(Cc2ccc(C(=O)NCCS(=O)(=O)O)cc2)c2ccc(C3=CCC(C(C)(C)C)CC3)cc2)cc1 (single isomer, unassigned) [drawing 127 R] | – |
| 18 | – | – | CC(C)(C)c1ccc(-c2ccc(C(Cc3ccc(C(=O)NCCS(=O)(=O)O)cc3)C(=O)Nc3ccc(-c4ccccc4Cl)cc3)cc2)cc1 (racemic) | 412 |
| 12 | – | – | CC(C)(C)c1ccc(-c2ccc(C(Cc3ccc(C(=O)NCCS(=O)(=O)O)cc3)C(=O)Nc3ccc(C4=CCC(C(C)(C)C)CC4)cc3)cc2)cc1 (racemic) | – |
| – | – | 7 | Cc1cc(Cl)ccc1-c1ccc(NC(=O)C(Cc2ccc(C(=O)NCCS(=O)(=O)O)cc2)c2ccc(C3=CCC(C(C)(C)C)CC3)cc2)cc1 (single isomer, unassigned) [drawing 129 R] | – |
| 18 | – | – | CC(C)(C)c1ccc(-c2ccc(C(Cc3ccc(C(=O)NCCS(=O)(=O)O)cc3)C(=O)Nc3ccc(-c4c(Cl)cccc4Cl)cc3)cc2)cc1 (racemic) | – |
| 18 | – | – | CC12CCC(C=C1c1ccc(C(Cc3ccc(C(=O)NCCS(=O)(=O)O)cc3)C(=O)Nc3ccc(-c4nc5ccccc5o4)cc3)cc1)C2(C)C (racemic) | 27 |
| 15 | – | – | Cc1cc(Cl)ccc1-c1ccc(NC(=O)C(Cc2ccc(C(=O)NCCS(=O)(=O)O)cc2)c2cccc(-c3ccc(C(C)(C)C)cc3)c2)cc1 (racemic) | 329 |
| 18 | – | – | CC1(C)CC=C(c2ccc(NC(=O)C(Cc3ccc(C(=O)NCCS(=O)(=O)O)cc3)c3ccc(-c4ccc(C(C)(C)C)cc4)cc3)cc2)CC1 (racemic) | 60 |
| 12 | – | – | CC(C)(C)c1ccc(-c2ccc(C(Cc3ccc(C(=O)NCCS(=O)(=O)O)cc3)C(=O)Nc3ccc(-c4nc5ccccc5o4)cc3)cc2)cc1 (racemic) | 241 |

More lines, now with the values behind:

| Structure (SMILES) | IC50 [2, 3] [nM] | IC50 [2, 4] [nM] | IC50 [2, 5] [nM] | EC50 [1] [nM] |
| --- | --- | --- | --- | --- |
| Cc1cc(C)c(-c2ccc(NC(=O)C(Cc3ccc(C(=O)NCCS(=O)(=O)O)cc3)c3ccc(C4=CCC(C)(C)CC4)cc3)cc2)c(C)c1 (racemic) | 12 | – | – | – |
| Cc1cc(Cl)ccc1-c1ccc(NC(=O)C(Cc2ccc(C(=O)NCCS(=O)(=O)O)cc2)c2ccc(C3=CCC(C(C)(C)C)CC3)cc2)cc1 (single isomer, unassigned) [drawing 127 S] | – | 20 | – | – |
| CC1(C)C=CC(c2cccc(C(Cc3ccc(C(=O)NCCS(=O)(=O)O)cc3)C(=O)Nc3ccc(-c4ccc(Cl)cc4Cl)cc3)c2)=CC1 (racemic) | 18 | – | – | 61 |
| O=C(NCCS(=O)(=O)O)c1ccc(CC(C(=O)Nc2ccc(-c3ccc(C(F)(F)F)cc3Cl)cc2)c2ccc(C3=CCCCC3)cc2)cc1 (racemic) | 16 | – | – | – |
| Cc1cc(Cl)ccc1-c1ccc(NC(=O)C(Cc2ccc(C(=O)NCCS(=O)(=O)O)cc2)c2ccc(C3=CCC(C)(C)CC3)cc2)cc1 (stereo not shown) [drawing 133 R] | – | – | 10 | – |
| CC(C)(C)C1CCC(c2ccc(C(Cc3ccc(C(=O)NCCS(=O)(=O)O)cc3)C(=O)Nc3ccc(-c4ccc(Cl)cc4Cl)cc3)cc2)CC1 (racemic) [drawing 110] | 18 | – | – | – |
| Cc1cc(Cl)ccc1-c1ccc(NC(=O)C(Cc2ccc(C(=O)NCCS(=O)(=O)O)cc2)c2cccc(C3=CCCCC3)c2)cc1 (racemic) | 14 | – | – | 32 |
| CC(C)(C)c1ccc(-c2ccc(C(Cc3ccc(C(=O)NCCS(=O)(=O)O)cc3)C(=O)Nc3ccc(-c4cccc(Cl)c4)cc3)cc2)cc1 (racemic) | 12 | – | – | 661 |
| Cc1ccc(-c2cc(Cl)c(NC(=O)C(Cc3ccc(C(=O)NCCS(=O)(=O)O)cc3)c3ccc(C=CC(C)(C)C)cc3)cc2C)cc1F (racemic) | 20 | – | – | 143 |
| CC1(C)CC=C(c2ccc(C(Cc3ccc(C(=O)NCCS(=O)(=O)O)cc3)C(=O)Nc3ccc(-c4ccc(C(C)(C)C)cc4)cc3Cl)cc2)CC1 (racemic) | 10 | – | – | – |
| Cc1ccc(-c2ccc(NC(=O)C(Cc3ccc(C(=O)NCCS(=O)(=O)O)cc3)c3ccc(C4=CCC(C)(C)CC4)cc3)c(Cl)c2)cc1Cl (racemic) | 16 | – | – | – |
| Cc1cc(Cl)ccc1-c1ccc(NC(=O)C(Cc2ccc(C(=O)NCCS(=O)(=O)O)cc2)c2ccc(C3=CCC(C(C)(C)C)CC3)cc2)cc1 (single isomer, unassigned) [drawing 129 S] | – | 19 | – | – |
| CC1(C)CC=C(c2ccc(C(Cc3ccc(C(=O)NCCS(=O)(=O)O)cc3)C(=O)Nc3ccc(-c4ccc(C(F)(F)F)cc4Cl)cc3)cc2)CC1 (racemic) | 15 | – | – | 137 |
| Cc1ccc(-c2ccc(NC(=O)C(Cc3ccc(C(=O)NCCS(=O)(=O)O)cc3)c3ccc(C4=CCC(C)(C)CC4)cc3)c(Cl)c2)c(C)c1 (racemic) | 14 | – | – | – |
| Cc1cc(Cl)ccc1-c1ccc(NC(=O)C(Cc2ccc(C(=O)NCCS(=O)(=O)O)cc2)c2ccc(C=CC(C)(C)C)cc2)cc1 (single isomer, unassigned) [drawing 125 R] | – | – | 14 | – |
| CC(C)(C)C1CCC(c2ccc(C(Cc3ccc(C(=O)NCCS(=O)(=O)O)cc3)C(=O)Nc3ccc(-c4ccc(C(F)(F)F)cc4Cl)cc3)cc2)CC1 (racemic) | 12 | – | – | 30 |
| CC(C)(C)c1ccc(-c2ccc(C(Cc3ccc(C(=O)NCCS(=O)(=O)O)cc3)C(=O)Nc3ccc(-c4cc(Cl)cc(Cl)c4)cc3)cc2)cc1 (racemic) | 15 | – | – | 132 |
| Cc1cc(Cl)ccc1-c1ccc(NC(=O)C(Cc2ccc(C(=O)NCCS(=O)(=O)O)cc2)c2ccc(C=CC(C)(C)C)cc2)cc1 (single isomer, unassigned) [drawing 125 S] | – | 61 | – | – |
| Cc1cc(Cl)ccc1-c1ccc(NC(=O)C(Cc2ccc(C(=O)NCCS(=O)(=O)O)cc2)c2cccc(C3=CCC(C)(C)C=C3)c2)cc1 (racemic) | 19 | – | – | 108 |
| Cc1cc(C(F)(F)F)ccc1-c1ccc(NC(=O)C(Cc2ccc(C(=O)NCCS(=O)(=O)O)cc2)c2ccc(C3=CCCCC3)cc2)cc1 (racemic) | 16 | – | – | 78 |
